Values quoted from earlier work as cited in publication PMC3378994 (Bioorganic & medicinal chemistry letters, 2012).

Target: DAT (Rattus norvegicus, UniProt P23977)
Sequence (P23977 whole entry): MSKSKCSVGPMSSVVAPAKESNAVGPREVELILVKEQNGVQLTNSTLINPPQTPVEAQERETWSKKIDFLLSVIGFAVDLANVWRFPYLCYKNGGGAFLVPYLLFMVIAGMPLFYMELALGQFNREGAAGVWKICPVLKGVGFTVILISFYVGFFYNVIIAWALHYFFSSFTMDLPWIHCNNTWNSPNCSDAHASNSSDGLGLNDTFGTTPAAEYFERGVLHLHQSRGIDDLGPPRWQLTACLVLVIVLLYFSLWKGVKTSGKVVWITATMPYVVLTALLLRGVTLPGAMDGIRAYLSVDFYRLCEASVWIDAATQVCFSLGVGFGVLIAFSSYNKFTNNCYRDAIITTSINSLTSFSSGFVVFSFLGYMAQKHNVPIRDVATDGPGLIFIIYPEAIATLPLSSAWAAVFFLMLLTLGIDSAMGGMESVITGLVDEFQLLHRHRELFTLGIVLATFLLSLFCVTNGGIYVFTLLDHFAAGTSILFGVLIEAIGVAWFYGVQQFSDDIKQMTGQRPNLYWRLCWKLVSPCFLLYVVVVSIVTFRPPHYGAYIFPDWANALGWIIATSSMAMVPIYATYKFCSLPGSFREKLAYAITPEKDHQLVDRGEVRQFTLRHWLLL

SMILES: Cc1ccc([C@H]2C[C@@H]3CC[C@H]([C@H]2C(=O)OCC[18F])N3C/C=C/I)cc1 [[^18F]FE-PE2I]
- Fold lower affinity to other monoamine transporters than to DAT: more than 50 fold
